In patent publication US20240075182A1, “ENHANCED DERMAL PATCH FOR TREATING MENSTRUAL PAIN” (REMY BIOSCIENCES, priority 2021, published 2024):

Tests used:
[1] = Saturation concentration (solubility) of CBD in PIB adhesive, CBD added until turbidity; assay type: physicochemical
Source text: Regarding peel strength of adhesives, the inventor used judgment and estimation for preparing the patch with 26% of tackifying resin. Escorez 5400 has been used in many adhesives but not in PIB. […] The inventor estimated the peel strength of the formulation with tackifier and without tackifier, by peeling them both from the inventor's own arm skin. To obtain saturation concentration of CBD in the PIB adhesive with 26% of tackifying resin Escorez 5400 the inventor needed to add more CBD to reach turbidity. […] It was the same as the flux from PIB saturated with CBD without tackifier.
This is expected to result in thus greater flux of CBD to a patient, where the dermal patch is in contact with the skin of a patient.

[2] = Transdermal flux / transdermal delivery from PIB adhesive patch (Franz diffusion cell)
Source text: The inventor used a Franz cell for assessing release kinetics, as described below. For testing release kinetics from transdermal monolithic patches, where a semi-solid adhesive matrix is used, the Franz cell has the following components, from top to bottom: (1) Stopper used to seal top of donor compartment; (2) Donor compartment; (3) Patch situated at very bottom of donor compartment, with adhesive side of patch attached to human cadaver skin; (4) Human cadaver skin located immediately under the patch; (5) Receiving compartment, located immediately below the skin. Receiving compartment is filled with ethanol/water solution; (6) Magnetic stirrer located at bottom of receiving compartment.
After receiving the donor human skin, the inventor prepared the skin for testing in a Franz cell by thawing the skin to room temperature, washing in distilled water and cutting in round pieces to fit the diameter of the Franz cell opening. Before placing the patch on the human skin, the inventor dried the skin with a paper tissue. The skin with the attached patch was placed between the Upper Donor Chamber and the Lower Receiving Chamber and clamped tightly. […] The test lasts typically 24 hrs and aliquots of 150 L were withdrawn from the receiving chamber after different periods of time and analyzed via HPLC. […]

[3] = as measured at room temperature; cited from earlier work
[4] = cited from earlier work

With `C=C(C)[C@@H]1CCC(C)=C[C@H]1c1c(O)cc(CCCCC)cc1O` [CBD, cannabidiol] as the compound, how does the “concentration of the saturation of CBD in PIB adhesive” value ([1]; PIB adhesive with 26% of tackifying resin Escorez 5400, CBD added to reach turbidity) read?
Its value is “about 18%”.

And the “solubility of CBD in PIB adhesive, effect of Escorez 5400 tackifier” value ([1]; with Escorez 5400 tackifier versus without)?
The value was “increased”.

What about the “transdermal flux of CBD” value ([2]; PIB adhesive with 26% Escorez 5400 saturated with CBD, versus PIB saturated with CBD without tackifier) of the same compound?
The value was “did not increase”.

For `O=S(=O)(O)CCN1CCN(CCS(=O)(=O)O)CC1` [PIPES], which pKa [3] is on record?
The pKa was 6.8.

Which pKa [3] does the source give for `OB(O)O` [boric acid] here?
Its pKa is 9.2.

For `COc1cc(CNC(=O)CCCC/C=C/C(C)C)ccc1O` [Capsaicin, trans-8-methyl-N-vanillyl-6-nonenamide], which water solubility [4] is on record?
Its water solubility is “not water-soluble”.

With `O=S(=O)(O)CCNC1CCCCC1` [CHES] as the compound, how does the pKa [3] read?
Its pKa is 9.5.

With `CCCCCCCC/C=C\CCCCCCCC(=O)O` [oleic acid] as the compound, how does the “transdermal delivery from PIB adhesive with enhancer” value ([2]; enhancer at 3% in PIB adhesive, versus PIB without enhancer) read?
The value was “double”.
